Reference: PubChem BioAssay AID2060905 (Molecular Pharmacology Branch, DTP, NCI, 2025)

Tested on: 282377-053-R-J1-PDC complex spheroid viability
Test: Anticancer human tumor 282377-053-R-J1-PDC patient-derived colon adenocarcinoma cell line growth inhibition [RAS]
Conditions: for IC50: curve of first compound; for viability, T/C: stronger effect = lower value
How it was run: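 Multi-cell-type spheroids: tumor cells plus HUVEC endothelial cells and mesenchymal stem cells. RAS-pathway inhibitors were combined with targeted agents, each dosed in half-log steps down from clinical Cmax, or from 10 microM when Cmax was unknown.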

[1] = second compound 0.000949 µM, first compound 0.0316 µM
[2] = second compound 0.000949 µM, first compound 0.1 µM
[3] = second compound 0.000949 µM, first compound 0.316 µM
[4] = second compound 0.000949 µM, first compound 1 µM
[5] = second compound 0.003 µM, first compound 0.0316 µM
[6] = second compound 0.003 µM, first compound 0.1 µM
[7] = second compound 0.003 µM, first compound 0.316 µM
[8] = second compound 0.003 µM, first compound 1 µM
[9] = second compound 0.00949 µM, first compound 0.0316 µM
[10] = second compound 0.00949 µM, first compound 0.1 µM
[11] = second compound 0.00949 µM, first compound 0.316 µM
[12] = second compound 0.00949 µM, first compound 1 µM
[13] = second compound 0.03 µM, first compound 0.0316 µM
[14] = second compound 0.03 µM, first compound 0.1 µM
[15] = second compound 0.03 µM, first compound 0.316 µM
[16] = second compound 0.03 µM, first compound 1 µM
[17] = second compound 0.0949 µM, first compound 0.0316 µM
[18] = second compound 0.0949 µM, first compound 0.1 µM
[19] = second compound 0.0949 µM, first compound 0.316 µM
[20] = second compound 0.0949 µM, first compound 1 µM
[21] = second compound 0.3 µM, first compound 0.0316 µM
[22] = second compound 0.3 µM, first compound 0.1 µM
[23] = second compound 0.3 µM, first compound 0.316 µM
[24] = second compound 0.3 µM, first compound 1 µM
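Note: spheroids exposed to agents for seven days before readout.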
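Throughout, for viability, T/C: luminescence viability as percent of DMSO vehicle control wells.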

SMILES: CC(Nc1ccc2c(c1)OCCn1cc(N3C(=O)OCC3C(F)F)nc1-2)C(N)=O (centres undefined) + CCn1c(-c2cccnc2C(C)OC)c2c3cc(ccc31)N1CCOC(CC(NC(=O)C(C(C)C)N(C)C(=O)C3(F)CCN(C(=O)C#CC(C)(C)N(C)C)CC3)C(=O)N3CCCC(N3)C(=O)OCC(C)(C)C2)C1
- IC50 (second compound 0.000949 µM): > 10000 nM
- IC50 (second compound 0.003 µM): > 10000 nM
- IC50 (second compound 0.00949 µM): > 10000 nM
- IC50 (second compound 0.03 µM): > 10000 nM
- IC50 (second compound 0.0949 µM): > 10000 nM
- IC50 (second compound 0.3 µM): > 10000 nM
- viability, T/C [1]: 97.3%
- viability, T/C [2]: 101%
- viability, T/C [3]: 86.2%
- viability, T/C [4]: 88.7%
- viability, T/C (second compound 0.000949 µM, first compound 3.16 µM): 109%
- viability, T/C (second compound 0.000949 µM, first compound 10 µM): 80.8%
- viability, T/C [5]: 99.8%
- viability, T/C [6]: 97.7%
- viability, T/C [7]: 86.9%
- viability, T/C [8]: 94.4%
- viability, T/C (second compound 0.003 µM, first compound 3.16 µM): 97.5%
- viability, T/C (second compound 0.003 µM, first compound 10 µM): 78.1%
- viability, T/C [9]: 118%
- viability, T/C [10]: 85.9%
- viability, T/C [11]: 84%
- viability, T/C [12]: 104%
- viability, T/C (second compound 0.00949 µM, first compound 3.16 µM): 86.3%
- viability, T/C (second compound 0.00949 µM, first compound 10 µM): 76.3%
- viability, T/C [13]: 83.7%
- viability, T/C [14]: 83.8%
- viability, T/C [15]: 86.5%
- viability, T/C [16]: 98.5%
- viability, T/C (second compound 0.03 µM, first compound 3.16 µM): 110%
- viability, T/C (second compound 0.03 µM, first compound 10 µM): 75.2%
- viability, T/C [17]: 102%
- viability, T/C [18]: 113%
- viability, T/C [19]: 78.8%
- viability, T/C [20]: 88.8%
- viability, T/C (second compound 0.0949 µM, first compound 3.16 µM): 96.2%
- viability, T/C (second compound 0.0949 µM, first compound 10 µM): 74.8%
- viability, T/C [21]: 84.7%
- viability, T/C [22]: 85.5%
- viability, T/C [23]: 96.7%
- viability, T/C [24]: 98.5%
- viability, T/C (second compound 0.3 µM, first compound 3.16 µM): 92.2%
- viability, T/C (second compound 0.3 µM, first compound 10 µM): 82.7%

SMILES: O=C(c1ccc(F)c(F)c1Nc1ccc(I)cc1F)N1CC(O)([C@@H]2CCCCN2)C1 + CCn1c(-c2cccnc2C(C)OC)c2c3cc(ccc31)N1CCOC(CC(NC(=O)C(C(C)C)N(C)C(=O)C3(F)CCN(C(=O)C#CC(C)(C)N(C)C)CC3)C(=O)N3CCCC(N3)C(=O)OCC(C)(C)C2)C1
- IC50 (second compound 0.000949 µM): 74.2 nM
- IC50 (second compound 0.003 µM): 125 nM
- IC50 (second compound 0.00949 µM): 93.5 nM
- IC50 (second compound 0.03 µM): 165 nM
- IC50 (second compound 0.0949 µM): 25 nM
- IC50 (second compound 0.3 µM): 73.8 nM
- viability, T/C (second compound 0.000949 µM, first compound 0.00316 µM): 66.2%
- viability, T/C (second compound 0.000949 µM, first compound 0.01 µM): 80.3%
- viability, T/C [1]: 78.2%
- viability, T/C [2]: 41.3%
- viability, T/C [3]: 30.4%
- viability, T/C [4]: 17.1%
- viability, T/C (second compound 0.003 µM, first compound 0.00316 µM): 70.2%
- viability, T/C (second compound 0.003 µM, first compound 0.01 µM): 74.1%
- viability, T/C [5]: 71.4%
- viability, T/C [6]: 42.2%
- viability, T/C [7]: 42.6%
- viability, T/C [8]: 14.7%
- viability, T/C (second compound 0.00949 µM, first compound 0.00316 µM): 74.3%
- viability, T/C (second compound 0.00949 µM, first compound 0.01 µM): 90%
- viability, T/C [9]: 48.3%
- viability, T/C [10]: 59.2%
- viability, T/C [11]: 29.2%
- viability, T/C [12]: 22.5%
- viability, T/C (second compound 0.03 µM, first compound 0.00316 µM): 82.8%
- viability, T/C (second compound 0.03 µM, first compound 0.01 µM): 75.3%
- viability, T/C [13]: 70.3%
- viability, T/C [14]: 56%
- viability, T/C [15]: 41.6%
- viability, T/C [16]: 21%
- viability, T/C (second compound 0.0949 µM, first compound 0.00316 µM): 67.2%
- viability, T/C (second compound 0.0949 µM, first compound 0.01 µM): 81.3%
- viability, T/C [17]: 43.8%
- viability, T/C [18]: 33.7%
- viability, T/C [19]: 37.9%
- viability, T/C [20]: 20.6%
- viability, T/C (second compound 0.3 µM, first compound 0.00316 µM): 64.3%
- viability, T/C (second compound 0.3 µM, first compound 0.01 µM): 91.2%
- viability, T/C [21]: 53.7%
- viability, T/C [22]: 46.6%
- viability, T/C [23]: 30.1%
- viability, T/C [24]: 17.6%
